Assay results published in paper PMC8705818, “Experimental Characterization of the Interaction between the N-Terminal SH3 Domain of Crkl and C3G” (International Journal of Molecular Sciences, 2021).
Peptide text beside a SMILES is read from it. * marks the point of attachment. Dansyl = CN(C)c1cccc2c(S(=O)(=O)*)cccc12

Columns and labels:
[1] = target: T1, N-SH3 domain of Crkl (WT) (Homo sapiens, UniProt P46109); experiment: Stopped-flow displacement, N-SH3 WT:dansylated C3G277–296 complex versus nondansylated peptide; format: binding; conditions: 10 °C
T1 construct: The construct encoding the N-SH3 domain of Crkl was subcloned in a pET28b+ plasmid vector; His-tag; made in house; host or cells: E. coli BL21
Description: (§1) We rapidly mixed a constant concentration of C3G277–296 peptide (0.5 µM) versus increasing concentrations of N-SH3 (ranging from 0.5 to 5 µM) and the observed rate constants (kobs) obtained at different ionic strength conditions (buffer Hepes 50 mM, pH 7.0, 0.15 M, 0.3 M, 0.5 M and 1 M NaCl) were plotted as function of concentration of N-SH3 and fitted with a linear equation (Figure 1). By following previously derived equations [19, 20], the dependence of kobs as function of [N-SH3] was fitted with Equation (1), taking into account the non-pseudo-first order conditions, allowing us to calculate the microscopic association rate constant (kon), the microscopic dissociation rate constant (koff) of the binding reaction and the equilibrium dissociation rate constant KD, such as koff/kon. To increase the reliability of the calculated KD, we resorted to directly obtaining a koff value through displacement experiments (Table 1), in which a preincubated complex of N-SH3 domain and dansylated C3G277–296 peptide (at the concentration of 0.5 and 2 µM, respectively) were rapidly mixed versus a high excess of nondansylated peptide (ranging from 20 to 40 µM). In agreement with the theory in [21], the observed rate constants were insensitive to displacer concentration. In all binding and displacement experiments conducted, traces were satisfactorily fitted with a single-exponential equation. (1) kobs=(kon^2∗(2−[NSH3])^2+koff^2+2konkoff(2+[NSH3]))^1/2
Kinetic binding experiments were performed on a single-mixing SX-18 stopped-flow instrument (Applied Photophysics), by mixing a constant concentration (0.5 μM) of C3G dansylated versus increasing concentrations of N-SH3 at 10 °C. Ionic strength dependence of wt N-SH3 was performed with concentrations ranging from 1 to 5 µM for 0 M NaCl condition and from 0.5 to 5 µM for 0.15 M, 0.3 M, 0.5 M and 1 M NaCl, buffer Hepes 50 mM pH 7.0. The excitation wavelength was 280 nm, and fluorescence was collected using a 455 nm cut-off filter. At least, five independent acquisitions were collected and averaged for each experiment. The resulting averages were all satisfactorily fitted with a single-exponential equation. Buffers used for pH dependence were: 50 mM Sodium Acetate pH 5.0, 50 mM Sodium Acetate, pH 5.5, Bis–Tris 50 mM pH 6.0, Bis–Tris 50 mM pH 6.5, Hepes 50 mM pH 7.0, Hepes 50 mM pH 7.5, Tris–HCl 50 mM pH 8.0, Tris–HCl 50 mM pH 8.5, Tris–HCl 50 mM pH 9.0, all with added 0.5 M NaCl. Concentrations of N-SH3 used for each experiment were: 4.0–8.0 µM at pH 5.0, 2.0–7.0 µM at pH 5.5, 1.0–5.0 µM at pH 6.0, 0.5–5.0 µM at pH 6.5, 1.5–6.0 µM at pH 7.0, 0.5–5.0 µM at pH 7.5, 1.5–6.0 µM at pH 8.0, 1.5–6.0 µM pH 8.5, 1.5–6.0 µM at pH 9.0. For the ionic strength dependence of D138A and E140A variants buffer used were 0.05 M NaCl, 0.1 M NaCl, 0.15 M NaCl, in 50 mM Hepes pH 7.5. Concentrations of N-SH3 D138A used for each experiment were: 2.0–4.5 µM at 0 M NaCl, 2.5–6.0 µM at 0.05 M, 0.1 M, 0.15 M NaCl. Concentrations of N-SH3 E140A used for each experiment were: 2.0–4.5 µM at 0 M NaCl, 3.0–5.5 µM at 0.05 M NaCl, 3.0–5.0 µM at 0.1 M NaCl, 3.0–5.5 µM at 0.15 M NaCl. Displacement kinetic experiments were performed by mixing a preincubated complex of N-SH3 (in all its variants) and dansylated C3G versus a high excess of nondansylated C3G (see text for details). Experiments were performed in the same buffer conditions as the binding experiments, except for D141A variant, for which 20% w/v sucrose was added to the buffer Hepes 50 mM pH 7.0. Displacement traces were fitted with a single-exponential equation.

N-SH3 D138A (Crkl) [2] = target: T2, N-SH3 D138A (Crkl) (Homo sapiens, UniProt P46109, D138A); experiment: Stopped-flow kinetic binding, N-SH3 D138A versus C3G277–296; conditions: pH 7.5, D138A, 50 mM Hepes pH 7.5, 10 °C
T2 construct: The construct encoding the N-SH3 domain of Crkl was subcloned in a pET28b+ plasmid vector; His-tag; made in house; host or cells: E. coli BL21
Description: as §1
(§2) Then, we employed D138A, E140A and D141A variants in kinetic binding experiments with C3G, and we explored the effect of increasing ionic strength on the binding reaction of these variants.
(§3) Kinetic binding experiments were performed on a single-mixing SX-18 stopped-flow instrument (Applied Photophysics), by mixing a constant concentration (0.5 μM) of C3G dansylated versus increasing concentrations of N-SH3 at 10 °C. Ionic strength dependence of wt N-SH3 was performed with concentrations ranging from 1 to 5 µM for 0 M NaCl condition and from 0.5 to 5 µM for 0.15 M, 0.3 M, 0.5 M and 1 M NaCl, buffer Hepes 50 mM pH 7.0. The excitation wavelength was 280 nm, and fluorescence was collected using a 455 nm cut-off filter. At least, five independent acquisitions were collected and averaged for each experiment. The resulting averages were all satisfactorily fitted with a single-exponential equation. Buffers used for pH dependence were: 50 mM Sodium Acetate pH 5.0, 50 mM Sodium Acetate, pH 5.5, Bis–Tris 50 mM pH 6.0, Bis–Tris 50 mM pH 6.5, Hepes 50 mM pH 7.0, Hepes 50 mM pH 7.5, Tris–HCl 50 mM pH 8.0, Tris–HCl 50 mM pH 8.5, Tris–HCl 50 mM pH 9.0, all with added 0.5 M NaCl. […]

N-SH3 D138A (Crkl) [3] = target: T2, N-SH3 D138A (Crkl); experiment: Stopped-flow displacement, N-SH3 D138A:dansylated C3G277–296 complex; format: binding; conditions: pH 7.5, D138A, 50 mM Hepes pH 7.5, 10 °C
Description: as §1
as §3, with “NaCl. Concentrations of N-SH3 used for each experiment were: 4.0–8.0 µM at pH 5.0, 2.0–7.0 µM at pH 5.5, 1.0–5.0 µM at pH 6.0, 0.5–5.0 µM at pH 6.5, 1.5–6.0 µM at pH 7.0, 0.5–5.0 µM at pH 7.5, 1.5–6.0 µM at pH 8.0, 1.5–6.0 µM pH 8.5, 1.5–6.0 µM at pH 9.0.” for “NaCl.”

N-SH3 E140A (Crkl) [4] = target: T3, N-SH3 E140A (Crkl) (Homo sapiens, UniProt P46109, E140A); experiment: Stopped-flow kinetic binding, N-SH3 E140A versus C3G277–296; conditions: pH 7.5, E140A, 50 mM Hepes pH 7.5, 10 °C
T3 construct: The construct encoding the N-SH3 domain of Crkl was subcloned in a pET28b+ plasmid vector; His-tag; made in house; host or cells: E. coli BL21
Description: as §1, §2, §3

N-SH3 E140A (Crkl) [5] = target: T3, N-SH3 E140A (Crkl); experiment: Stopped-flow displacement, N-SH3 E140A:dansylated C3G277–296 complex; format: binding; conditions: pH 7.5, E140A, 50 mM Hepes pH 7.5, 10 °C
Description: as §1
as §3, with “NaCl. Concentrations of N-SH3 used for each experiment were: 4.0–8.0 µM at pH 5.0, 2.0–7.0 µM at pH 5.5, 1.0–5.0 µM at pH 6.0, 0.5–5.0 µM at pH 6.5, 1.5–6.0 µM at pH 7.0, 0.5–5.0 µM at pH 7.5, 1.5–6.0 µM at pH 8.0, 1.5–6.0 µM pH 8.5, 1.5–6.0 µM at pH 9.0.” for “NaCl.”

T2 sequence (P46109 123-183 D138A limits assumed): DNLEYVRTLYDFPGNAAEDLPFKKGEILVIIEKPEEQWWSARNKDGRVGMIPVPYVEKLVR
T3 sequence (P46109 123-183 E140A limits assumed): as the sequence (P46109 123-183 D138A limits assumed) above, with A16D, E18A counted along it
T1 sequence (P46109 123-183 limits assumed): as the sequence (P46109 123-183 D138A limits assumed) above, with A16D counted along it

## CC(C)C[C@H](NC(=O)[C@H](C)NC(=O)[C@@H]1CCCN1C(=O)[C@@H]1CCCN1C(=O)[C@@H]1CCCN1C(=O)[C@H](CO)NC(=O)[C@H](CC(N)=O)NC(=O)[C@H](CC(=O)O)NC(=O)[C@@H](NC(=O)[C@@H](NS(=O)(=O)c1cccc2c(N(C)C)cccc12)C(C)C)C(C)C)C(=O)N1CCC[C@H]1C(=O)N1CCC[C@H]1C(=O)N[C@@H](CCCCN)C(=O)N[C@@H](CCCCN)C(=O)N[C@@H](CCCNC(=N)N)C(=O)N[C@@H](CCC(N)=O)C(=O)N[C@@H](CO)C(=O)N[C@@H](C)C(=O)N1CCC[C@H]1C(=O)N[C@@H](CO)C(=O)O [C3G277–296] (Dansyl-VVDNSPPPALPPKKRQSAPS-OH)
[1]; pH 5, pH 5.0 (50 mM Sodium Acetate), 0.5 M NaCl, displacement
  koff: 257 ± 10 s⁻¹
[1]; pH 5.5, pH 5.5 (50 mM Sodium Acetate), 0.5 M NaCl, displacement
  koff: 81 ± 3 s⁻¹
[1]; pH 6, pH 6.0 (Bis–Tris 50 mM), 0.5 M NaCl, displacement
  koff: 78 ± 3 s⁻¹
[1]; pH 6.5, pH 6.5 (Bis–Tris 50 mM), 0.5 M NaCl, displacement
  koff: 65 ± 2 s⁻¹
[1]; pH 7, 0 M NaCl, Hepes 50 mM pH 7.0, displacement by 20–40 µM nondansylated peptide
  koff: 12 ± 1 s⁻¹
[1]; pH 7, 0.15 M NaCl, Hepes 50 mM pH 7.0, displacement
  koff: 23 ± 1 s⁻¹
[1]; pH 7, 0.3 M NaCl, Hepes 50 mM pH 7.0, displacement
  koff: 32 ± 2 s⁻¹
[1]; pH 7, 0.5 M NaCl (ionic strength series), Hepes 50 mM pH 7.0, displacement
  koff: 34 ± 1 s⁻¹
[1]; pH 7, 1.0 M NaCl, Hepes 50 mM pH 7.0, displacement
  koff: 51 ± 2 s⁻¹
[1]; pH 7, pH 7.0 (Hepes 50 mM), 0.5 M NaCl (pH series), displacement
  koff: 42 ± 2 s⁻¹
[1]; pH 7.5, pH 7.5 (Hepes 50 mM), 0.5 M NaCl, displacement
  koff: 34 ± 2 s⁻¹
[1]; pH 8, pH 8.0 (Tris–HCl 50 mM), 0.5 M NaCl, displacement
  koff: 46 ± 3 s⁻¹
[1]; pH 8.5, pH 8.5 (Tris–HCl 50 mM), 0.5 M NaCl, displacement
  koff: 40 ± 3 s⁻¹
[1]; pH 9, pH 9.0 (Tris–HCl 50 mM), 0.5 M NaCl, displacement
  koff: 39 ± 2 s⁻¹
N-SH3 D138A (Crkl) [2]; 0 M NaCl, 0.5 µM dansylated peptide vs 2.0–4.5 µM N-SH3 D138A
  kon: 1.58e+08 ± 1.2e+07 M⁻¹ s⁻¹
N-SH3 D138A (Crkl) [2]; 0.05 M NaCl, 0.5 µM dansylated peptide vs 2.5–6.0 µM N-SH3 D138A
  kon: 8.1e+07 ± 8e+06 M⁻¹ s⁻¹
N-SH3 D138A (Crkl) [2]; 0.10 M NaCl, 0.5 µM dansylated peptide vs 2.5–6.0 µM N-SH3 D138A
  kon: 4.8e+07 ± 8e+06 M⁻¹ s⁻¹
N-SH3 D138A (Crkl) [2]; 0.15 M NaCl, 0.5 µM dansylated peptide vs 2.5–6.0 µM N-SH3 D138A
  kon: 1.2e+07 ± 5e+06 M⁻¹ s⁻¹
N-SH3 D138A (Crkl) [3]; 0 M NaCl
  koff: 139 ± 1 s⁻¹
N-SH3 D138A (Crkl) [3]; 0.05 M NaCl
  koff: 212 ± 2 s⁻¹
N-SH3 D138A (Crkl) [3]; 0.10 M NaCl
  koff: 183 ± 2 s⁻¹
N-SH3 D138A (Crkl) [3]; 0.15 M NaCl
  koff: 254 ± 2 s⁻¹
N-SH3 E140A (Crkl) [4]; 0 M NaCl, 0.5 µM dansylated peptide vs 2.0–4.5 µM N-SH3 E140A
  kon: 7.8e+07 ± 6e+06 M⁻¹ s⁻¹
N-SH3 E140A (Crkl) [4]; 0.05 M NaCl, 0.5 µM dansylated peptide vs 3.0–5.5 µM N-SH3 E140A
  kon: 8.9e+07 ± 8e+06 M⁻¹ s⁻¹
N-SH3 E140A (Crkl) [4]; 0.10 M NaCl, 0.5 µM dansylated peptide vs 3.0–5.0 µM N-SH3 E140A
  kon: 7.7e+07 ± 8e+06 M⁻¹ s⁻¹
N-SH3 E140A (Crkl) [4]; 0.15 M NaCl, 0.5 µM dansylated peptide vs 3.0–5.5 µM N-SH3 E140A
  kon: 8.1e+07 ± 8e+06 M⁻¹ s⁻¹
N-SH3 E140A (Crkl) [5]; 0 M NaCl
  koff: 254 ± 3 s⁻¹
N-SH3 E140A (Crkl) [5]; 0.05 M NaCl
  koff: 330 ± 3 s⁻¹
N-SH3 E140A (Crkl) [5]; 0.10 M NaCl
  koff: 302 ± 2 s⁻¹
N-SH3 E140A (Crkl) [5]; 0.15 M NaCl
  koff: 339 ± 2 s⁻¹
